# Key:
# [1] = Flash point, closed-cup apparatus, ASTM-D3278; format: physicochemical
# Source text: The flash point may be determined using a closed-cup apparatus in accordance with the standard ASTM-D3278.
# [2] = Vapour pressure by ebulliometry, ASTM-E1719; format: physicochemical
# Source text: The vapour pressure may be determined by ebulliometry in accordance with the standard ASTM-E1719.
# [3] = Specific gravity by hydrometer, ASTM-D891; format: physicochemical
# Source text: The specific gravity may be determined by means of a hydrometer in accordance with the standard ASTM-D891.
# [4] = Solubility in water by coulometric Karl Fischer titration, ASTM-D6304; format: physicochemical
# Source text: The solubility in water may be determined by coulometric Karl Fischer titration in accordance with the standard ASTM-D6304.
# [5] = Solubility of 2-ethyltetrahydroanthrahydroquinone in tested solvents (protocol of the patent); conditions: 2-THEAHQ dissolved in the tested lactone solvent; hydrogenation of parent quinone, cooled until precipitation, liquid chromatography
# Procedure: In the following examples, the solubilities of 2-ethyltetrahydroanthrahydroquinone (2-THEAHQ) were tested in different solvents in accordance with the protocols detailed below.
# For 2-ethyltetrahydroanthrahydroquinone, the solubilities were determined by dissolving a weighed amount of the parent quinone in the tested solvent. After the addition of a Pd-based catalyst to the solution, the mixture was hydrogenated until hydrogen absorption ceases, and then cooled until precipitation occurs.
# The samples were analysed by liquid chromatography. Reference mixtures were prepared for calibration.
Compound,Flash point (° C.) [1],Vapour pressure (Pa) [2],Specific gravity [3],Solubility in water (mg/kg) [4],Solubility of 2-THEAHQ [5],Solubility in water [4]
O=C1CCCO1 [γ-butyrolactone],97 °C,87 Pa,1.136,484.3 10^3 mg/kg,–,–
O=C1CCO1 [β-propiolactone],70 °C,418 Pa,1.137,–,70 mg/mL,–
CCCCCCCC1CCCC(=O)O1 (stereo not drawn) [δ-dodecalactone],168 °C,0.05 Pa,0.962,–,276 mg/mL,1113 mg/kg
CCCCC1CCC(=O)O1 (stereo not drawn) [γ-octalactone],–,–,–,–,281 mg/mL,–
CC1CC(=O)O1 (stereo not drawn) [β-butyrolactone],74 °C,212 Pa,1.076,158.9 10^3 mg/kg,–,–

# — patent US20250326639A1, “METHOD FOR PRODUCING HYDROGEN PEROXIDE” (ARKEMA FRANCE, priority 2022, published 2025)
